According to patent US20240336601A1 (Chulalongkorn University, priority 2020, published 2024):

Biological target: interaction between PD-1 and PD-L1 (Homo sapiens, UniProt Q9NZQ7)
Assay: PD-1/PD-L1 protein-protein interaction assay (ALPHA)
Type: binding
Conditions: 2 nM His-tagged human PD-L1, 0.6 nM PD-1-Fc, AlphaScreen

interaction between PD-1 and PD-L1, sequence (Q9NZQ7 19-238 limits assumed): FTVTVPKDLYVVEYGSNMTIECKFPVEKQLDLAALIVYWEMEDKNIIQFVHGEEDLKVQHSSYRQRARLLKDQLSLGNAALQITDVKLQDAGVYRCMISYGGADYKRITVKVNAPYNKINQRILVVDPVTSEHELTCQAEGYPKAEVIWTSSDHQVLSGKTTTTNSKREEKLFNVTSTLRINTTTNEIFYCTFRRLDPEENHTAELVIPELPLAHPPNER

SMILES | IC50
COc1cc(CNC[C@@H]2CCC(=O)N2)cc(-n2ccc3c(-c4ccc5c(c4)OCCO5)cccc32)c1 [Example 19] | > 100 nM
CC(CO)(NCc1ccc(-n2ccc3c(-c4ccc5c(c4)OCCO5)cccc32)cc1OCc1cccc(C#N)c1)C(=O)O (centres unmarked) [Example 5, 2-((2-((3-cyanobenzyl)oxy)-4-(4-(2,3-dihydrobenzo[b][1,4]dioxin-6-yl)-1H-indol-1-yl)benzyl)amino)-3-hydroxy-2-methylpropanoic acid] | > 100 nM
c1cc(-c2ccc3c(c2)OCCO3)c2ccn(-c3nc4c(s3)CNCC4)c2c1 [Example 59, 2-(4-(2,3-dihydrobenzo[b] [1,4]dioxin-6-yl)-1H-indol-1-yl)-4,5,6,7-tetrahydrothiazolo[5,4-c]pyridine] | > 100 nM
COc1cc(-n2ccc3c(-c4ccc5c(c4)OCCO5)cccc32)cc(OC)c1CNC1CNC(=O)C1 (centres unmarked) [Example 16] | > 100 nM
COc1nc(-n2ccc3c(-c4ccc5c(c4)OCCO5)cccc32)ccc1CN1CC(C)(O)C1 [Example 12, ((6-(4-(2,3-dihydrobenzo[b][1,4]dioxin-6-yl)-1H-indol-1-yl)~2~methoxypyridin-3-yl)methyl)-L-serine] | > 100 nM
Cc1cc2cc(CNC[C@@H]3CCC(=O)N3)cnc2c(-n2ccc3c(-c4ccc5c(c4)OCCO5)cccc32)n1 [Example 63, (S)-5-((((8-(4-(2,3-dihydrobenzo[b][1,4]dioxin-6-yl)-1H-indol-1-yl)-6-methyl-1,7-naphthyridin-3-yl)methyl)amino)methyl)pyrrolidin-2-one] | > 100 nM
Cc1nn(CCNC[C@@H]2CCC(=O)N2)c2ccc(-n3ccc4c(-c5ccc6c(c5)OCCO6)cccc43)cc12 [Example 62, (S)-5-(((2-(5-(4-(2,3-dihydrobenzo[b] [1,4]dioxin-6-yl)-1H-indol-1-yl)-3-methyl-1H-indazol-1-yl)ethyl)amino)methyl)pyrrolidin-2-one] | > 100 nM
COc1nc(N2CCc3c(-c4ccc5c(c4)OCCO5)cccc32)ccc1CNC[C@@H]1CCC(=O)N1 [Example 80, (S)-5-((((6-(4-(2,3-dihydrobenzo[b][1,4]dioxin-6-yl)indolin-1-yl)-2-methoxypyridin-3-yl)methyl)amino)methyl)pyrrolidin-2-one] | > 100 nM
COc1cc(-n2ccc3c(-c4ccc5c(c4)OCCO5)cccc32)cc(OC)c1CN1C[C@H](O)C[C@@H]1C(=O)O [Example 2, (2R,4R)-1-(4-(4-(2,3-dihydrobenzo[b][1,4]dioxin-6-yl)-1H-indol-1-yl)-2,6-dimethoxybenzyl)-4-hydroxypyrrolidine-2-carboxylic acid] | > 100 nM
O=C(O)[C@H](CO)NCc1ccc(-n2ccc3c(-c4ccc5c(c4)OCCO5)cccc32)nc1 [Example 9] | > 100 nM
COc1cc(C(=O)n2ccc3c(-c4ccc5c(c4)OCCO5)cccc32)cc(OC)c1CNC(C)(CO)C(=O)O (centres unmarked) [Example 7, 2-((4-(4-(2,3-dihydrobenzo[b][1,4]dioxin-6-yl)-1H-indole-1-carbonyl)-2,6-dimethoxybenzyl)amino)-3-hydroxy-2-methylpropanoic acid] | > 100 nM
Cn1c(CN[C@@H](CO)C(=O)O)cc2ccc(-n3ccc4c(-c5ccc6c(c5)OCCO6)cccc43)cc21 [Example 57, (S)-2-(((4-(2,3-dihydrobenzo[b][1,4]dioxin-6-yl)-1′-methyl-1′H-[1,6′-biindol]-2′-yl)methyl)amino)-3-hydroxypropanoic acid] | > 100 nM
N#Cc1cccc(COc2cc(-n3ccc4c(-c5ccc6c(c5)OCCO6)cccc43)ccc2CNCCO)c1 [Example 6, 3-((5-(4-(2,3-dihydrobenzo[b][1,4]dioxin-6-yl)-1H-indol-1-yl)-2-(((2-hydroxyethyl)amino)methyl)phenoxy)methyl)benzonitrile] | > 100 nM
COc1nc(-n2ccc3c(-c4ccc5c(c4)OCCO5)cccc32)ccc1CN[C@@H](CO)C(=O)O [Example 10] | > 100 nM
